SMILES strings stand for the structures.

The target in this assay is T1, Caspase-1 (Homo sapiens, UniProt P29466).
T1 sequence (P29466 whole entry): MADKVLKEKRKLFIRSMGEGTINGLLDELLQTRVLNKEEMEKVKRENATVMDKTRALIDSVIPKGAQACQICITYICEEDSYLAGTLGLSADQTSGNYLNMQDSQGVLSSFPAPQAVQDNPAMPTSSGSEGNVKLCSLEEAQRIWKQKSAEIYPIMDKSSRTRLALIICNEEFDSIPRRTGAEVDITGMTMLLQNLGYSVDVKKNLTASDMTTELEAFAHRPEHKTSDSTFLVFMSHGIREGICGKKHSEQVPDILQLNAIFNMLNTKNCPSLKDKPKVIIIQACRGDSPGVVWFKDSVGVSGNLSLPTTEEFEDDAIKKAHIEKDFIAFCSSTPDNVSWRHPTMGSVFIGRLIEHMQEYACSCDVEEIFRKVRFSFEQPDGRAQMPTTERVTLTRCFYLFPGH
Description: Caspase Inhibition Assay. Conditions: pH 7; 37 °C. On the procedure: The substrate peptides terminating in AMC are processed by caspases with or without inhibitors, and the accumulation of AMC was assessed with a Cytofluor fluorescent plate reader at excitation and emission wavelengths of 380 and 460 nm. Compounds were tested, and full IC50 curves were run for all compounds expressing measurable inhibitory activity.
As for `O=C[C@H](CC(=O)O)NS(=O)(=O)c1ccccc1Oc1ccc(-c2ccccc2)cc1` [(3S)-4-oxo-3-{[2-(4-phenylphenoxy)benzene]sulfonamido}butanoic acid], the Ki was 290 nM. To `Cc1ccccc1Oc1ccccc1S(=O)(=O)N[C@H](C=O)CC(=O)O` [(3S)-3-{[2-(2-methylphenoxy)benzene]sulfonamido}-4-oxobutanoic acid] belongs 3000 nM; to `Cc1cccc(Oc2ccccc2S(=O)(=O)N[C@H](C=O)CC(=O)O)c1` [(3S)-3-{[2-(3-methylphenoxy)benzene]sulfonamido}-4-oxobutanoic acid], 430 nM; to `Cc1cc(Oc2ccccc2S(=O)(=O)N[C@H](C=O)CC(=O)O)cc(C)c1C` [(3S)-4-oxo-3-{[2-(3,4,5-trimethylphenoxy)benzene]sulfonamido}butanoic acid], 450 nM. Consider `O=C[C@H](CC(=O)O)NS(=O)(=O)c1ccccc1Oc1ccccc1` [(3S)-4-oxo-3-[(2-phenoxybenzene)sulfonamido]butanoic acid], for which the Ki is 2400 nM.

For `CCC(CC)c1ccc(Oc2ccccc2S(=O)(=O)N[C@H](C=O)CC(=O)O)cc1` [(3S)-4-oxo-3-({2-[4-(pentan-3-yl)phenoxy]benzene}sulfonamido)butanoic acid], the affinity, expressed as Ki, was 440 nM. To `O=C[C@H](CC(=O)O)NS(=O)(=O)c1ccccc1Oc1ccc(C2CCCCC2)cc1` [(3S)-3-{[2-(4-cyclohexylphenoxy)benzene]sulfonamido}-4-oxobutanoic acid] belongs 900 nM; to `CCC(C)c1ccc(Oc2ccccc2S(=O)(=O)N[C@H](C=O)CC(=O)O)cc1` (stereo partly drawn) [(3S)-3-({2-[4-(butan-2-yl)phenoxy]benzene}sulfonamido)-4-oxobutanoic acid], 490 nM. Molecule `Cc1ccc(Oc2ccccc2S(=O)(=O)N[C@H](C=O)CC(=O)O)cc1` [(3S)-3-{[2-(4-methylphenoxy)benzene]sulfonamido}-4-oxobutanoic acid] displayed a Ki of 1100 nM.

For the molecule `Cc1cc(Oc2ccccc2S(=O)(=O)N[C@H](C=O)CC(=O)O)ccc1C(C)C` [(3S)-3-({2-[3-methyl-4-(propan-2-yl)phenoxy]benzene}sulfonamido)-4-oxobutanoic acid], the affinity, expressed as Ki, was 110 nM. Molecule `CC(C)c1ccc(Oc2ccccc2S(=O)(=O)N[C@H](C=O)CC(=O)O)cc1` [(3S)-4-oxo-3-({2-[4-(propan-2-yl)phenoxy]benzene}sulfonamido)butanoic acid] gave a Ki of 620 nM. With `Cc1cccc(Oc2ccccc2S(=O)(=O)N[C@H](C=O)CC(=O)O)c1C` [(3S)-3-{[2-(2,3-dimethylphenoxy)benzene]sulfonamido}-4-oxobutanoic acid], the inhibition constant Ki amounted to 1000 nM. Next, `O=C[C@H](CC(=O)O)NS(=O)(=O)c1ccccc1Oc1ccc(-c2ccc(C(=O)O)cc2)cc1` [4-[4-(2-{[(2S)-1-carboxy-3-oxopropan-2-yl]sulfamoyl}phenoxy)phenyl]benzoic acid]: 4200 nM. Next, `O=C[C@H](CC(=O)O)NS(=O)(=O)c1ccccc1Oc1ccc(C2CCCC2)cc1` [(3S)-3-{[2-(4-cyclopentylphenoxy)benzene]sulfonamido}-4-oxobutanoic acid]: 880 nM. To `CCC(C)c1ccc(Oc2ccccc2S(=O)(=O)N[C@H](C=O)CC(=O)O)cc1C` (stereo partly drawn) [(3S)-3-({2-[4-(butan-2-yl)-3-methylphenoxy]benzene}sulfonamido)-4-oxobutanoic acid] belongs 100 nM.

For orientation: Ki means the dissociation constant of the complex between target and ligand, obtained from inhibition or displacement. Lower therefore signals tighter binding.

The values above are taken from BindingDB's records for doi:10.1016/s0960-894x(01)00573-x (Pfizer, 2001).
